From patent US9328104B2, “Selective androgen receptor modulators” (Pfizer Inc., priority 2012, dated 2016)

Target: T1, full length human Androgen Receptor (AR) (Homo sapiens, UniProt P10275)
T1 construct: transiently transfected in T225 cm^2 flasks with a full length human Androgen Receptor (AR) cDNA; expressed in transfected cells; host or cells: CV-1 cells (ATCC CCL-70), transiently transfected with AR cDNA in pcDNA3 and ARE-luciferase in pGL3
T1 sequence (P10275 1-920): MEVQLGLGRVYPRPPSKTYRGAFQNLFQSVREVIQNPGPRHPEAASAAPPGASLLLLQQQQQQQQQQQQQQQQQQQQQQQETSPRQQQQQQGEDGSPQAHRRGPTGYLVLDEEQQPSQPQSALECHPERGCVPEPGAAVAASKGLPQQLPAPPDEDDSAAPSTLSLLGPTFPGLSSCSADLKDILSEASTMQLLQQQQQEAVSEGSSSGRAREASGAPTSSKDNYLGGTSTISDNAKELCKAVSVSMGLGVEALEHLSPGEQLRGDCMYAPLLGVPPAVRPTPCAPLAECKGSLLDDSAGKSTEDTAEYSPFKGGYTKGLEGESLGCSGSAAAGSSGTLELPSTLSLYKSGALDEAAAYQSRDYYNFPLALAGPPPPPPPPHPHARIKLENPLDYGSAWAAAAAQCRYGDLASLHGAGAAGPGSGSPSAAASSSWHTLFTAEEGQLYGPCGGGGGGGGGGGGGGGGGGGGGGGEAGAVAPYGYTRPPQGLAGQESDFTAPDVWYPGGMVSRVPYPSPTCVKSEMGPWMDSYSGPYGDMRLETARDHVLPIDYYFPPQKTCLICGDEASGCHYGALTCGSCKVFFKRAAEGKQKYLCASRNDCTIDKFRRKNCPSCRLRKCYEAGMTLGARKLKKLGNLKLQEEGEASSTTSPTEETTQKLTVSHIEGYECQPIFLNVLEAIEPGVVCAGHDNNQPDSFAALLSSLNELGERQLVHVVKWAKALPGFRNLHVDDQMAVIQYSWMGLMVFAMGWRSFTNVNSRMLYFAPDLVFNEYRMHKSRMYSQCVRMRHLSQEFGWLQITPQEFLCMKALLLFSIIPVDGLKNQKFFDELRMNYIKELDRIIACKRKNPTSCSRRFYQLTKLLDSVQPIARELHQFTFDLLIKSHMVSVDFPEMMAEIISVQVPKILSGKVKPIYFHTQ
Experiment: Androgen Receptor-Mediated Transcriptional Assay (ARE-luciferase reporter in transiently transfected CV-1 cells)
Type: cell-based
Settings: not given
Description: Androgen Receptor-Mediated Transcriptional Assay Summary
CV-1 cells (American Tissue Culture Collection cat# CCL-70) were expanded in Growth Media and transiently transfected in T225 cm^2 flasks with a full length human Androgen Receptor (AR) cDNA in the pcDNA3 expression vector and a human Androgen Response Element (ARE)-luciferase cDNA in the pGL3 vector (both from Invitrogen). DNA (μg) and Lipofectamine (μl) at a ratio of 1:3 were incubated with the cells in a total volume of 55 mL Basal Media for 4 hours. Cells were harvested by trypsinization and frozen back (−150° C. cryomed) at a concentration of 4.3 million cells/mL.
On the day of the assay, frozen cells were thawed and re-suspended in Re-suspension Media and plated at 40,000 cells/well (in 100 μL volume) in 96 well white plates and were incubated for at least 4 h at 37° C., 5% CO2. After incubation, cells were treated with the compounds to be screened. 10 mM stocks of the compounds were serially diluted 1:10 in 100% DMSO followed by an additional 1:100 dilution in Assay Media. These dilution series were added to the cell plates resulting in a further 1:10 dilution and a final % DMSO of 0.1%. The vehicle control wells also contained this dilution of DMSO and the positive control wells contained […] (DHT) as an AR agonist at final concentration of 0.3 nM in 0.1% DMSO. Cells were incubated for 16-18 hours at 37° C. and 5% CO2. Then the culture media was removed from and the cells were lysed in 20 μL of cell lysis reagent for 5 minutes at room temperature. 50 μL of luciferase reagent was added to each well and luminescence, over 5 seconds, was measured.
EC50 (half maximal effective concentration) was calculated from concentration series plots which generated sigmoidal curves. Xlfit software was used to plot the best fit of the % effect vs concentration and to calculate the EC50.
Reagents and Materials used in the Androgen Receptor-Mediated Transcriptional Assay include the following: • Growth Media—DMEM/high glucose—10% FBS: 500 ml phenol red DMEM/high glucose (Gibco, Grand Island N.Y., cat #10569-010), 10% non heat-inactivated Fetal Bovine Serum (FBS) (Atlanta Biologicals, Norcross Ga., cat #S-12450), 1% Nonessential Amino Acids (Gibco, cat #11140-050), 1% Penicillin-Streptomycin (Gibco, cat #15140-122) • Basal Media—phenol red free DMEM/high glucose (Gibco, cat #31053-028)+1% Na Pyruvate (Gibco, cat #11360-070), 1% Nonessential Amino Acids (Gibco, cat #11140-050), 1% GlutaMAX-I (Gibco, cat #35050-061) • Re-suspension Media—basal media+1% Penicillin-Streptomycin (Gibco, cat #15140-122) • Assay Media—basal media+5% charcoal stripped FBS (HyClone, Logan Utah, Cat #SH30068)+1% Penicillin-Streptomycin (Gibco, cat #15140-122) • Cell Lysis Reagent—Promega, Cat #PAE1531 • Luciferase Reagent—Promega, Cat #PAE1483

| Molecule | EC50 |
| --- | --- |
| CC[C@H]1CNS(=O)(=O)N1c1ccc2c(C#N)nccc2c1 (single isomer, unassigned) [Compound 2] | 18 nM |
| C[C@H]1CNS(=O)(=O)N1c1ccc2c(C#N)cccc2c1 (single isomer, unassigned) [Compound 9] | 4 nM |
| C[C@H]([C@@H](O)C(F)(F)F)N(C)c1ccc2c(C#N)nccc2c1 (single isomer, unassigned) [Compound 26] | 0.1 nM |
| N#Cc1nccc2cc(N3CCCC[C@@H]3[C@H](O)C(F)(F)F)ccc12 (single isomer, unassigned) [Compound 29] | 0.02 nM |
| N#Cc1nccc2cc(N3CCC[C@H]3[C@@H](O)C(F)(F)F)ccc12 (single isomer, unassigned) [Compound 37] | 9.1 nM |
| N#Cc1nccc2cc(N3CCC[C@@H]3[C@H](O)C(F)(F)F)ccc12 (single isomer, unassigned) [Compound 35] | 7.4 nM |
| C[C@H]1CC[C@@H]([C@H](O)C(F)(F)F)N1c1ccc2c(C#N)nccc2c1 (single isomer, unassigned) [Compound 38] | 187 nM |
| N#Cc1nccc2cc(N3C(=O)CC[C@H]3[C@H](O)C(F)(F)F)ccc12 (single isomer, unassigned) [Compound 33] | 231 nM |
| N#Cc1nccc2cc(N3C(=O)CC[C@@H]3[C@H](O)C(F)(F)F)ccc12 (single isomer, unassigned) [Compound 32] | 84.3 nM |
| N#Cc1nccc2cc(N3CCC[C@@H]3[C@@H](O)C(F)(F)F)ccc12 (single isomer, unassigned) [Compound 34] | 0.1 nM |
| C[C@H]([C@H](O)C(F)(F)F)N(C)c1ccc2c(C#N)nccc2c1 (single isomer, unassigned) [Compound 27] | 12.9 nM |
| C[C@H](O)[C@H]1CC[C@@H](C)N1c1ccc2c(C#N)nccc2c1 (single isomer, unassigned) [Compound 39] | 37.3 nM |
| C[C@H]1CNS(=O)(=O)N1c1ccc2c(C#N)nccc2c1 [Compound 1, 6-[(3S)-3-methyl-1,1-dioxido-1,2,5-thiadiazolidin-2-yl]isoquinoline-1-carbonitrile] | 15 nM |
| N#Cc1nccc2cc(N3CCCC[C@@H]3[C@@H](O)C(F)(F)F)ccc12 (single isomer, unassigned) [Compound 28] | 61.5 nM |
| CC1(C)CNS(=O)(=O)N(c2ccc3c(C#N)nccc3c2)C1 [Compound 13, 6-(4,4-dimethyl-1,1-dioxido-1,2,6-thiadiazinan-2-yl)isoquinoline-1-carbonitrile] | 0.7 nM |
| N#Cc1nccc2cc(N3CCC[C@H]3[C@H](O)C(F)(F)F)ccc12 (single isomer, unassigned) [Compound 36] | 120 nM |
| CCN1C[C@@H](C)CN(c2ccc3c(C#N)nccc3c2)S1(=O)=O (single isomer, unassigned) [Compound 16] | 262 nM |
| N#Cc1nccc2cc(N3CC4(CC4)CNS3(=O)=O)ccc12 [Compound 14, 6-(6,6-dioxido-6-thia-5,7-diazaspiro[2.5]oct-5-yl)isoquinoline-1-carbonitrile] | 22 nM |
| C[C@@H](Nc1ccc2c(C#N)nccc2c1)[C@H](O)C(F)(F)F [Compound 23, 6-{[(2R,3S)-4,4,4-trifluoro-3-hydroxybutan-2-yl]amino}isoquinoline-1-carbonitrile] | 5.1 nM |
| C[C@@H]1CC[C@H]([C@@H](O)C(F)(F)F)N1c1ccc2c(C#N)nccc2c1 [Compound 30, 6-{(2R,5R)-2-methyl-5-[(1R)-2,2,2-trifluoro-1-hydroxyethyl]pyrrolidin-1-yl}isoquinoline-1-carbonitrile] | 0.1 nM |

Same assay, conditions: CV-1 cells transfected with human AR and ARE-luciferase; 16-18 hours incubation; luminescence; read-out: EC50 Values for Compounds 1-22 from Androgen Receptor-Mediated Transcriptional Assay

| EC50 | Molecule |
| --- | --- |
| 22 nM | N#Cc1nccc2cc(N3[C@@H](c4ccc(Cl)cc4)CNS3(=O)=O)ccc12 (single isomer, unassigned) [Compound 7] |
| 22 nM | N#Cc1nccc2cc(N3[C@H](CCc4ccccc4)CNS3(=O)=O)ccc12 (single isomer, unassigned) [Compound 4] |
| 177 nM | Cc1ccc([C@@H]2CNS(=O)(=O)N(c3ccc4c(C#N)nccc4c3)C2)cc1 (single isomer, unassigned) [Compound 19] |
| 217 nM | N#Cc1nccc2cc(N3C[C@H](c4ccccc4)CNS3(=O)=O)ccc12 [Compound 12] |
| 195 nM | Cc1cccc(C[C@@H]2CNS(=O)(=O)N(c3ccc4c(C#N)nccc4c3)C2)c1 (single isomer, unassigned) [Compound 15] |
| 271 nM | C[C@H]1CCS(=O)(=O)N1c1ccc2c(C#N)nccc2c1 [Compound 8, 6-[(3S)-3-methyl-1,1-dioxido-1,2-thiazolidin-2-yl]isoquinoline-1-carbonitrile] |
| 79 nM | N#Cc1nccc2cc(N3[C@H](CC(F)(F)F)CNS3(=O)=O)ccc12 (single isomer, unassigned) [Compound 3] |
| 16 nM | CC1CCN(c2ccc3c(C#N)nccc3c2)S(=O)(=O)N1 (racemic) [Compound 17, 6-(5-methyl-1,1-dioxido-1,2,6-thiadiazinan-2-yl)isoquinoline-1-carbonitrile] |
| 687 nM | C[C@H]1CNS(=O)(=O)N(c2ccc3c(C#N)nccc3c2)C1 [Compound 11, 6-[(4S)-4-methyl-1,1-dioxido-1,2,6-thiadiazinan-2-yl]isoquinoline-1-carbonitrile] |
| 20 nM | Cc1ccc([C@H]2CNS(=O)(=O)N(c3ccc4c(C#N)nccc4c3)C2)cc1 (single isomer, unassigned) [Compound 18] |
| 0.4 nM | C[C@@H]1CNS(=O)(=O)N(c2ccc3c(C#N)nccc3c2)C1 [Compound 10, 6-[(4R)-4-methyl-1,1-dioxido-1,2,6-thiadiazinan-2-yl]isoquinoline-1-carbonitrile] |

| Molecule | EC50 |
| --- | --- |
| CCCC1CNS(=O)(=O)N(c2ccc3c(C#N)nccc3c2)C1 (racemic) [Compound 22, 6-(1,1-dioxido-4-propyl-1,2,6-thiadiazinan-2-yl)isoquinoline-1-carbonitrile] | 569 nM |
| C[C@H]1CN(C)S(=O)(=O)N1c1ccc2c(C#N)nccc2c1 [Compound 5] | 5 nM |
| 6-[(4S)-4-ethyl-1,1-dioxido-1,2,6-thiadiazinan-2-yl]isoquinoline-1-carbonitrile [Compound 21] | 8 nM |
| 6-[(4S)-4-(3-methylphenyl)-1,1-dioxido-1,2,6-thiadiazinan-2-yl]isoquinoline-1-carbonitrile [Compound 20] | 8 nM |

Same assay, conditions: CV-1 cells transfected with human AR and ARE-luciferase; 16-18 hours incubation; luminescence; read-out: EC50 Values for Compounds 23-39 from Androgen Receptor-Mediated Transcriptional Assay

| Molecule | EC50 |
| --- | --- |
| 6-{(2R,5R)-2-[(1R)-1-hydroxyethyl]-5-methylpyrrolidin-1-yl}isoquinoline-1-carbonitrile [Compound 31] | 474 nM |
